This note sets out measurements from US20050079186A1, “Therapeutic vaccine peptide complex for preventing and treating disorders in mammals” (ORIDAN, Inc., priority 2001, published 2005).

The test system of assay [1] is Leishmania. As to the kind of experiment: Leishmaniasis serology: quantitative anti-Leishmania immunofluorescence. The class given is in vivo, dog. Further details: key: +: IF: Immunofluorescence (considered positive if the titer is ≧1/100); − = absence. To be noted: healthy dogs vaccinated with peptide(s) 50 μg + muramyl dipeptide 100 μg; analyses 2 months and 12 months after the infectious test. The text has this:
In parallel to the study of the specific activation of the T lymphocytes the Th1 type by intradermoreaction, dosage of the NO (NO is synthesized by monocytes activated by the cytokines of the T cells of the Th1 type) and lymphocyte proliferation, a serological monitoring by traditional immunofluorescence using strips coated with the promastigotes (serological reference method for canine leishmaniasis) is done.
(§1) The biological analyses consist of: • biochemical analyses: urea, creatine, transaminases • hematological analyses: count, formula • serology leishmaniasis: quantitative anti-Leishmania immunofluorescence, dosage by the ELISA method of IgG2s specific to the peptides A16E and/or A16G • cellular response tests: IDR test (IntraDermoReaction) done with leishmanines and also with A16E and A16G peptides, dosage of NO and lymphoblastic proliferation.

Assay [2] concerns IgG2 specific to the peptides A16E and/or A16G. As to the kind of experiment: ELISA detection of IgG2 specific to the peptides A16E and A16G. The class given is in vivo, dog. The note with it: vaccinated dogs, ELISA towards the corresponding peptides; for SEROLOGY ELISA IgG2 (positive/negative): 2 months and 12 months after the infectious test; for SEROLOGY ELISA IgG2 (optical density): cut off 0.300 OD.
Excerpt: Detection of immunoglobulins of the isotype IgG2 of dogs, specifically of the peptides A16E and A16G and their derivatives:
This detection is done by the ELISA method according to the microtitration technique of Kweider et al (J. Immunol. 1987, 138, 299) using a bonded anti IgG2. For this method, the peptides are biotinylated prior to coating on microplates.
as §1
For orientation: In an ELISA, binding on a coated surface is turned into a signal by an enzyme label.

Assay [3] has as its system Leishmania. As to the kind of experiment: Parasitemy: direct exam of bone marrow smear and cultivation on NNN medium. The class given is in vivo, dog. Further details: key: − = absence. The note with it: vaccinated dogs, 2 months and 12 months after the infectious test. The text has this:
A parasitological exam was done from the sample taken directly from the candidate studied, a dog, for example.
A smear of a puncture of the bone marrow is made on a slide. This smear, fixed once by methanol, is stained with May-Grünwald-Geimsa and observed by an immersion microscope (x 1000).
Samples of the bone marrow are brought under cultivation in the biphase cultivation medium NNN (Novy and Mac Neal, 1904, 4. Infec. Dis., 1:1-30), of which RPMI 1640 supplemented with 20% decomplemented fetal calf serum constitutes the liquid phase. The blind subculturings were done every four to six days. The cultures are regularly observed in a photon microscope (×400) for 20 min.
The parasitemy was quantified as follows:
The infectious examination consists in intravenously injecting 106 treated promastigotes in metacyclic phase in the complement of a healthy dog and 5.106 peritoneal macrophages of a healthy dog, infected in vitro by the amastigotes.
The promastigotes and infected macrophages are diluted in sterile physiological serum for a final volume of 1.5 ml. This mixture is made just prior to injection.
To these analyses must be added the search for Leishmania by direct observation in a microscope and cultivation on NNN medium from bone marrow after the infectious test.

The test system of assay [4] is cell-mediated immunity of the Th1 type. Kind of assay: Intra Dermo Reaction (IDR) test. The class given is in vivo, dog. The note with it: vaccinated dogs, 2 months after the infectious test; for IDR A16E: IDR done with peptide A16E; for IDR A16G: IDR done with peptide A16G; for IDR Leishmanines: read 48 h after intradermoinjection. The protocol: Evidence of the involvement of a cell-mediated immunity of the Th1 type:
Leishmanias of the promastigote forms are cultivated in the standard culture media. Parasites are harvested from the end of the exponential phase (6-7 days). The parasitic residue is washed three times by centrifugation (2500 g, […], 4° C.) in a PBS buffer.
After having verified the viability of the parasites using a vital stain (Trypan Blue), a suspension containing […] parasites per ml is inactivated in a PBS buffer containing 0.01% merthiolate (Pinelli et al., 1994, Infect. Immun., 62: 229-235). This constitutes the leishmanias for the intradermoreaction test (IDR).
Dogs are placed in lateral decubitus and a delicate and non-irritating shearing is done on the thoracic zone approximately 5 cm by 10 cm behind the elbow. Four circles 10 mm in diameter are marked using a felt-tip pen.
Into the center of the circles, 0.1 ml of solution is injected in an intradermo-injection. Two circles receive the solution of leishmanias and the 2 other circles receive the saline methiolated solution in the negative control. The reading of the Intra Dermo Reaction (IDR) is done 48 hours later using an allergologic gauge.
The test is considered positive if the mean of the two observed induration diameters is greater than or equal to 5 mm. The observation of an erythema without induration will be considered to be a negative test (Pinelli et al., 1994, Infect. Immun., 62: 229-235; Marty et al., 1994, Trans. Roy. Soc. Trop. Med. Hyg., 88, 658-659).
The IDRs can also be performed with a solution of peptides A16E and A16G or their derivatives and MDP, for example, in proportions of 10 μg of peptides for 20 μg of MDP.

For assay [5], the system named is peripheral blood mononuclear cells (PBMC). As to the kind of experiment: Lymphocyte (lymphoblastic) proliferation test. The class given is cell-based, dog. The note with it: vaccinated dogs; 2 months after the infectious test. The protocol:
Next, a test is done on the lymphocyte proliferation.
The peripheral blood mononuclear cells (PBMC) of dogs are separated on the Ficoll gradient (density 1.078) by centrifugation at 800 g for 20 mn at ambient temperature. These cells are brought under cultivation on a plate having 96 wells at a concentration of 2.10^5 cells per well in the presence of 2 μg per ml of Concanavalin A (Sigma), 5 μg per ml of ES P (excretion—secretion promastigotes) or […] of supernatants of culture harvested in the stationary phase of growth of promastigotes (SP) per well, and in the absence of any additive in a volume of […] of the medium RPMI 1640 containing 5% decomplemented fetal calf serum, 2 mM of L-glutamine, 100 U of penicillin per ml, […] of streptomycin per ml. The optimal antigen and mitogen concentrations have been determined in prior experiments. […] The cells are harvested over a filter and the incorporation of the radioactivity is determined by counting in a scintillating liquid (β-counter). […]
The lymphocytary proliferation has also been estimated by visual readings in a photon microscope (−: negative; +/−: slight proliferation; +: little proliferation less than 5 points per microscopic field; ++: mean proliferation greater than 5 points; +++: strong proliferation).

Consider “A-A-R-S-A-R-S-R-E-G-Y-S-L-T-D-E [A16E, 16 amino acid peptide specific to Leishmania]”, for which, in assay [1], the “SEROLOGY IF Quantitative” value is “−”. Also, in assay [2], the “SEROLOGY ELISA IgG2 (positive/negative)” value is “+ (ELISA: Cut off = 0.300 OD (optical density))” and the “SEROLOGY ELISA IgG2 (optical density)” value came to 0.700 OD. Also, in assay [3], the “Cultivation on NNN Medium” value is “−” and the “PARASITEMY Direct Exam” value is reported as “−”. In assay [4], the “IDR A16E” value is given as “+ (The Intra Dermo Reaction test is considered positive (+) if the induration is ≧5 mm 48 h. after intradermoinjection)”, the “IDR A16G” value is “Limit” and the “IDR Leishmanines” value is recorded as “+ (The Intra Dermo Reaction test is considered positive (+) if the induration is ≧5 mm 48 h. after intradermoinjection)”. Also, the “Lymphoblastic Proliferation Test, reading in a photon microscope” value in assay [5] is “+ (little proliferation less than 5 points per microscopic field)”.

In the case of “A-A-S-S-T-P-S-P-G-S-G-C-E-V-D-G [A16G, 16 amino acid peptide specific to Leishmania]”, the “SEROLOGY IF Quantitative” value in assay [1] is on record as “−”. Also, in assay [2], the “SEROLOGY ELISA IgG2 (positive/negative)” value was “+ (ELISA: Cut off = 0.300 OD (optical density))” and the “SEROLOGY ELISA IgG2 (optical density)” value is reported as 0.520 OD. Also, in assay [3], the “Cultivation on NNN Medium” value is listed as “−” and the “PARASITEMY Direct Exam” value was “−”. Further, in assay [4], the “IDR A16E” value is listed as “Limit”, the “IDR A16G” value is listed as “+ (The Intra Dermo Reaction test is considered positive (+) if the induration is ≧5 mm 48 h. after intradermoinjection)” and the “IDR Leishmanines” value is listed as “+ (The Intra Dermo Reaction test is considered positive (+) if the induration is ≧5 mm 48 h. after intradermoinjection)”. Moreover, in assay [5], the “Lymphoblastic Proliferation Test, reading in a photon microscope” value is “++ (mean proliferation greater than 5 points)”.
